This is an account of results in US11660354B2, “Inhibitor-functionalized ultrasmall nanoparticles and methods thereof” (Memorial Sloan Kettering Cancer Center, priority 2016, dated 2023).

Where two headings read alike, the source gives them in different places. Square brackets hold non-standard residues; d marks the D form. Sta = CC(C)C[C@H](N)[C@@H](O)CC(=O)O; Ahx = NCCCCCC(=O)O

The subject of one series is TRAMP-C2 cell line. Kind of series: Binding of radiolabeled C′ dots to the TRAMP-C2 cell line. The format is cell-based, mouse. From the text:
The advantages of the TRAMP model are the development of disease that mirrors human pathology in an immune competent mouse, coupled with the formation of LN and bone metastases. Disadvantages are that the biology/physiology of mouse prostate is not the same as the human organ. For example, the mouse prostate is not a single organ, as in human, but has 4 lobes, different from the single organ human prostate. The advantage of the TRAMP model is the ability to image metastatic disease and nodal metastases with PSMA- and GRPr-targeting C′ dots using PET and fluorescence-based multiplexing. Binding studies of PSMAi-(^67Ga)NOTA-C′ dots and GRP-(^177Lu)DOTA-C′ dots to the TRAMP-C2 cell line were examined (FIG. 17). The TRAMP-C2 cell line was derived from TRAMP prostate tumors. Both the PSMAi-(^67Ga)NOTA-C′ dots and GRP-(^177Lu)DOTA-C′ dots bound the TRAMP-C2 cell line. […] This model enables proof-of-concept studies to be conducted for multiplexed detection of nodal metastases using a cocktail of PSMAi-PEG-Cy5.5-C′ dots and GRP-PEG-CW800-C′ dots.

A further series concerns LNCaP cells. Put plainly: Radiolabeled particle cell binding and internalization, LNCaP cells. In kind it is cell-based. The procedure: (§1) Blocking studies show specific uptake.
(§2) PSMAi-(^64Cu)NOTA-C′ dots and GRP-(^177Lu)DOTA-C′ dots were examined for cell binding with LNCaP and PC3 cells (FIGS. 11A-11C). Cells were incubated with 100,000 CPM of PD10 purified radiolabeled C′ dots. PMPA and bombesin were used for blocking PSMAi and GRP radiolabeled C′ dots. After 3 PBS washes, the membrane surface-bound fraction was removed with 40 mM NaOAc (pH=4.5, 0.9% NaCl, 0.2% BSA), after which the cells were dissolved in NaOH to obtain internalized counts.

Series [1] is classed as in vitro ADME. The conditions noted are these: serum. The procedure:
PSMAi-NOTA-C′ dots (21 μmol) were radiolabeled with ^64Cu or ^177Lu (210 pmol) in NH4Ac buffer pH 5.5 at 70° C. for 20 min. The average radiolabeling yields were 98.6% and 99.3% radiochemical purities of 98% and 99.9%. Stabilities of the radiolabeled particle complexes were examined in water, saline, and serum (Table 1).
In the final step, PSMA and GRPr targeted C′ dots can be radiolabeled with ^64Cu and ^67Ga at various concentrations (˜0.3-300 nmol) in acetate buffer (pH 5.5) for 30 min and at 70° C. to obtain PSMAi-(^64Cu)NOTA-C′ dots and GRP-(^67Ga)DOTA-C′ dots. For ^89Zr labeling, as-synthesized PSMAi-DFO-C′ dot can be incubated with ^89Zr-oxalate at 37° C. for 30 min (pH 7-8). Radiolabeled PSMA-targeting C′ dots and GRPr-targeting C′ dots can be purified using PD-10 (G-25) size exclusion chromatography. For radiolabeling experiments, specific radiolabeling parameters can be determined for optimal radiolabeling efficiencies and high specific activities. Labeling can begin with the conditions shown to produce the highest specific activity. Quality control includes ITLC, HPLC, and cell-based receptor binding bioassays. Stability of radiolabeled C′ dots can be determined in H2O, PBS at 25° C. and mouse and human serum at 37° C.

In the next series the test system is PC3 cells. Put plainly: Radiolabeled particle cell binding and internalization, PC3 cells. The format is cell-based. The protocol: as §1, §2
Series [2] relates to PC lesion and metastatic LNs. Put plainly: Clinical PET with ^68Ga-RM2 and ^68Ga-PSMA-11 in prostate cancer patients. The format is in vivo. The settings on record: patient with biochemical recurrence of PC. From the text:
FIGS. 20A-20B show a patient with biochemical recurrence of PC imaged with PSMA ligand ^68Ga-PSMA-11 and GRPr ligand ^68Ga-RM2. ^68Ga-PSMA-11 scan acquired 4 weeks after the ^68Ga-RM2 scan. Retroperitoneal LN metastases are better visualized on the GRPr scan than on the PSMA scan.

Turning to “GRP-(^177Lu)DOTA-C′ dots: GRP antagonist-DOTA peptide-functionalized C′ dots radiolabeled with ^177Lu ({Ac-Cys-Ahx-Ahx-K(DOTA)-4‑amino‑1‑carboxymethyl‑piperidine}-HQWAVGH[Sta]L-NH2; also: Cys thiol bound to maleimide-PEG-silane on silica nanoparticle, DOTA labelled with 177Lu)”, the “binding to TRAMP-C2 cell line with RM2 peptide” value in the series with TRAMP-C2 cell line (addition of an excess of GRPr targeting RM2 peptide) is given as “significantly reduced”. Also, in the series on TRAMP-C2 cell line (alone), the “binding to TRAMP-C2 cell line” value is given as “bound”. Moreover, the “cell binding, uptake and internalization” value is on record as “low levels of binding” in the series on LNCaP cells and “bound PC3 cells, but were not efficiently internalized” in the series on PC3 cells. Also, the “percent radiolabeled C′ dot stability” value in series [1] (human, 1 h) is given as 99.9%; in series [1] (human, 4 h) it was 99.9%; in series [1] (human, 24 h), 99.8%; in series [1] (mouse, 1 h), 99.9%; in series [1] (mouse, 4 h) it was 99.8%; in series [1] (mouse, 24 h), 98.6%. Also, the “binding in the presence of bombesin” value with PC3 cells (blocking with bombesin) is “blocked”.
On to `O=C(O)CCc1ccc(O)c(CN(CCN(CC(=O)O)Cc2cc(CCC(=O)NCCCCCC(=O)NCCCC[C@H](NC(=O)N[C@@H](CCC(=O)O)C(=O)O)C(=O)O)ccc2O)CC(=O)O)c1` (68Ga complex, metal not drawn) [PSMA-11], for which the normal organ uptake result in series [2] is “very high RES and renal uptake”.
